Source: ChEMBL document CHEMBL3774364, “Synthesis of N-cyano-substituted sulfilimine and sulfoximine derivatives of S0859 and their biological evaluation as sodium bicarbonate co-transport inhibitors” (Medchemcomm, 2015)
Active and inactive are the calls of the source. The rule behind the calls is not given here.

Legend:
[1] = biological target: T1, Sodium bicarbonate cotransporter 3 (Homo sapiens) (UniProt Q9Y6M7); assay: Inhibition of NBCn1 in human MCF7 cells assessed as decrease in Na(+) -dependent pHi recovery rate at 30 uM; format: cell-based
T1 sequence (whole entry): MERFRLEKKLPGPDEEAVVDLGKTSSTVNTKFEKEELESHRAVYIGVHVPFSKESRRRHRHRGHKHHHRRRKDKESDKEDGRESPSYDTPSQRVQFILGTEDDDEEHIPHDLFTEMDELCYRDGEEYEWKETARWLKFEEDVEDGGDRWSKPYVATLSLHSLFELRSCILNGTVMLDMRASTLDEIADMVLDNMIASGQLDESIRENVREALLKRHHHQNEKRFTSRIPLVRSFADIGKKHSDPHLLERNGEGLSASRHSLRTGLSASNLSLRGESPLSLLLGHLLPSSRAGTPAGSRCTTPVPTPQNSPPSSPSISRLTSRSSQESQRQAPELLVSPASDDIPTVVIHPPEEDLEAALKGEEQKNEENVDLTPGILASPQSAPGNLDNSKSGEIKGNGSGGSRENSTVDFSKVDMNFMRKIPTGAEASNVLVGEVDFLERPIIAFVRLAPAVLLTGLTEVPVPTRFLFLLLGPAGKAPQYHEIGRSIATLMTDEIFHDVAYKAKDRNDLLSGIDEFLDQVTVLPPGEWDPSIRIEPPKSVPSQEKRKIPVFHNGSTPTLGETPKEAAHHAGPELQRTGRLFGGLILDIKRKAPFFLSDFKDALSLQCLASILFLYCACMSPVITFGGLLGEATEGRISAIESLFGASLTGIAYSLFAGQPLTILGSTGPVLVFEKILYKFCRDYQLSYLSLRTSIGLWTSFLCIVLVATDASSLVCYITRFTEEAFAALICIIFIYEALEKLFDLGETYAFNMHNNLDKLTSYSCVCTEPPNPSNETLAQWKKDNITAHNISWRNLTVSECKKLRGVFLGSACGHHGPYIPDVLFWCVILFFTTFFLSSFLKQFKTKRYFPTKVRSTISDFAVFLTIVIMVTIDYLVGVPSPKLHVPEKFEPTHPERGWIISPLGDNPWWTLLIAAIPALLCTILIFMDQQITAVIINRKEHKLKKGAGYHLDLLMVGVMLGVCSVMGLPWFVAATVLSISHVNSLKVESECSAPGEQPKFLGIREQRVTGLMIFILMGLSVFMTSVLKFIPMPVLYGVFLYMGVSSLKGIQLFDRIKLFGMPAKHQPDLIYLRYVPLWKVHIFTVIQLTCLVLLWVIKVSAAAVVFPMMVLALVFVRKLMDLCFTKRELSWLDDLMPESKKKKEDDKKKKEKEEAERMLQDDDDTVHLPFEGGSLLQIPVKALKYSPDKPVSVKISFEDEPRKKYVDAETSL

[2] = biological target: T2, Sodium bicarbonate cotransporter 3 (Mus musculus) (UniProt Q8BTY2); assay: Inhibition of NBCn1 in epithelial organoids from mouse ErbB2-overexpressing breast cancer tissue assessed as Na(+) -dependent pHi recovery rate at 30 uM
T2 sequence (whole entry): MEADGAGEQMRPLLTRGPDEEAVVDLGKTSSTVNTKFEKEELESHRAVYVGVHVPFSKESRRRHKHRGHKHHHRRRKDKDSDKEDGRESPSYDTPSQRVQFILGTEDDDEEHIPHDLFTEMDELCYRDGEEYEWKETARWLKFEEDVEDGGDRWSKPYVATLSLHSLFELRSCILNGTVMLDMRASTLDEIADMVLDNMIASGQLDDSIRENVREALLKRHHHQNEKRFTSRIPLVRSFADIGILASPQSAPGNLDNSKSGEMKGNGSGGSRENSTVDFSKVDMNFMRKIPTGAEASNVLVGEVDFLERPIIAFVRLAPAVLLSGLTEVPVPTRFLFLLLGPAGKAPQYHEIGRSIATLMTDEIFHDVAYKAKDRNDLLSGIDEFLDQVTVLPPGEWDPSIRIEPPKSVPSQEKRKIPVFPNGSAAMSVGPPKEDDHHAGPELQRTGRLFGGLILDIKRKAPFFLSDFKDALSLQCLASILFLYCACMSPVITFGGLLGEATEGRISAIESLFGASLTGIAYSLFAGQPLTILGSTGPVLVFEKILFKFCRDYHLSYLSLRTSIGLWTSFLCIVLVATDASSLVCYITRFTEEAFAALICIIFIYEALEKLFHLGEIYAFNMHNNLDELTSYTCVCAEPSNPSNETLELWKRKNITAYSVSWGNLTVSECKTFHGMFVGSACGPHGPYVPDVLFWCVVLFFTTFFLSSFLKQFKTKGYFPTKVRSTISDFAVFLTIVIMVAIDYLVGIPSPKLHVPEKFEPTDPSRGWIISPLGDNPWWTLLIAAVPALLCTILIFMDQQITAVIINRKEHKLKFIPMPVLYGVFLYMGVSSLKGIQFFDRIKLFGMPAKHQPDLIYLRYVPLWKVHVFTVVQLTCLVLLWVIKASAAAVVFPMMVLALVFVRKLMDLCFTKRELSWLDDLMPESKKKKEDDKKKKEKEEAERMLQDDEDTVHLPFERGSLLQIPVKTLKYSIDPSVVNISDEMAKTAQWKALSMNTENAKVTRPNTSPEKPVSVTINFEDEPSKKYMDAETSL

| inhibition [1] | inhibition [2] | Structure (SMILES) |
| --- | --- | --- |
| 45% | inactive | Cc1ccc(CN(Cc2ccc(-c3ccccc3S(=O)(=O)NC#N)cc2)C(=O)c2ccccc2Cl)cc1 |
| inactive | inactive | Cc1ccc(CN(Cc2ccc(-c3ccccc3S(C)(=O)=NC#N)cc2)C(=O)c2ccccc2Cl)cc1 (stereo unspecified) |
| inactive | inactive | Cc1ccc(CN(Cc2ccc(-c3ccccc3/S(C)=N/C#N)cc2)C(=O)c2ccccc2Cl)cc1 (stereo unspecified) |
